# Assay results reported in US10758552B2, “Pharmaceutical composition containing combinations of nicotinamide and 5-aminosalicylic acid for beneficially influencing the intestinal microbiota and/or treating gastrointestinal inflammation” (CONARIS RESEARCH INSTITUTE AG, priority 2013, dated 2020).
# Experiments:
# [1] = test system: dextrane sodium sulfate (DSS) colitis model in mice; test: DSS colitis model in mice on Trp/Nia/NAM-free diet, histological scoring of the colon (Example 1); type: in vivo, C57BL/6J mice; details: 1.5% DSS
# Procedure: In order to characterise the combined effect of 5-ASA and nicotinamide (NAM) in controlled release formulations for targeted delivery of both substances to the intestinal epithelium, a study was conducted in a dextrane sodium sulfate (DSS) colitis model in mice. In this study, a controlled release granule formulation for was tested in two different doses (30 mg/kg and 60 mg/kg). As a representative controlled release formulation for 5-ASA, 5-ASA granules ([…]®; Ferring Pharmaceuticals, Saint-Prex, Switzerland) were used both alone and in combination with the NAM granules. The controlled release formulation for NAM is a granulate of 25% nicotinamide, 70% dibasic calcium phosphate and 5% Povidone K30. The mean particle size was 234 μm. […] Filtering removed particles with a size of less than 355 μm. Control granules replaced NAM with an equivalent amount of dibasic calcium phosphate. Male C57BL/6J mice (specific pathogen free; Charles River Laboratories, Saint-Germain-sur-l'Arbresle, France) were taken into the test facility at >12 weeks of age and acclimatised for 1 week. The diet during the acclimatisation phase was diet A4, produced by SAFE (Scientific Animal Food and Engineering, Augy, France). […] The fixed doses for the other granules were calculated in an analogous fashion. […]
# murine DSS colitis model = test: DSS colitis model in mice on normal diet, disease activity index (DAI) scoring (Example 2); type: in vivo, C57BL/6J mice; details: for % improvement of DAI vs DSS: granules in food, 2.5% DSS
# Procedure: In a second and much larger study, NAM and 5-ASA controlled release granules were used again in the murine DSS colitis model (see Example 1) to confirm the anti-inflammatory properties of NAM in one low dose (30 mg/kg) and to investigate two higher dosages (120 or 240 mg/kg) not administered in the first study. […] One very important difference to the first study described in Example 1 was the fact that the mice received normal food with normal levels of tryptophan, nicotinic acid and nicotinamide (SAFE diet A4; Scientific Animal Food and Engineering, Augy, France; see Example 1). Therefore, any effects observed in this second study cannot be due to supplementation of NAM to NA/NAM/Trp-starved mice. In the present study, the same DSS colitis model in C57BL/6J mice as in Example 1 was used, albeit with some minor modifications: 2.5% DSS were used to provide a stronger DSS challenge. The animals were acclimatised for one week to stabilise their microbiota, randomised into 9 different groups as illustrated in the following Table 1 and then kept for 10 days on the different diets (days -10 to -1) before inducing colitis by DSS in the drinking water (day 0-day 6) followed by a washout period with normal drinking water (day 6-day 9). All groups received 2.5% DSS. [table] [table] The 5-ASA granules were the same as in Example 1. Their 5-ASA content was 52% (one granule weighed 0.5 mg and contained 0.26 mg of 5-ASA). The 5-ASA granules were mixed with regular food for preparation of single-use food aliquots, which were stored frozen at -20° C. and thawed daily prior to feeding the mice. […] Therefore, the food was prepared with 2.88 g of granules per kg of food (for the 150 mg/kg dose) or 1.44 g/kg (for the 75 mg/kg dose). The NAM granules of the present example were produced by the same manufacturer and in a similar formulation (diameter: 0.355-0.500 mm; NAM content: 19.1%) as in Example 1. Three kinds of food were prepared in an analogous fashion to the food with 5-ASA granules as described above. […] Therefore, the food preparation for the three dose groups was performed as follows: 1.57 g of granules per kg of food for the 30 mg/kg dose group, 6.28 g of granules per kg of food for the 120 mg/kg dose group and 12.56 g of granules per kg of food for the 240 mg/kg dose group. For the control group, food without granules was processed in the same fashion as the granule-containing food preparations described above in order to exclude preparation artefacts. After euthanasia, the colon was analysed and the disease activity index (DAI; score 0-9) was scored using an adapted DAI system based on […] et al. 2005 (Am. J. Physiol. Gastrointest. Liver Physiol. 288:[…]). As no visible blood was observed, the blood scoring parameter according to […] et al. was changed to scoring the signal strength for occult blood in feces detected by the ColoScreen test (Helena Laboratories, Beaumont, Tex., USA). This signal strength scoring was performed independently by two investigators blinded to the identity of the samples. [table] All comparisons were analysed using the […] for two independent samples in the StatXact software (Cytel, Cambridge, Mass., USA).
SMILES,"histological score of the colonic mucosa ([1]; 5-ASA granules alone in diet, 150 mg/kg)",stool consistency (diarrhea) (murine DSS colitis model; 75 mg/kg 5-ASA alone),% improvement of DAI vs DSS (murine DSS colitis model; 75 mg/kg 5-ASA),stool consistency (diarrhea) (murine DSS colitis model; 150 mg/kg 5-ASA alone),% improvement of DAI vs DSS (murine DSS colitis model; 150 mg/kg 5-ASA),"mice having blood in the feces (occult blood) (murine DSS colitis model; 150 mg/kg 5-ASA, control mice 100%, day of necropsy)","macroscopic inflammation score, dose effect (murine DSS colitis model; 5-ASA alone, 75 vs 150 mg/kg)","disease activity index (DAI), dose effect (murine DSS colitis model; doubling the dose of 5-ASA from 75 to 150 mg/kg)","histological score of the colonic mucosa ([1]; NAM granules alone in diet, 30 or 60 mg/kg)",% improvement of DAI vs DSS (murine DSS colitis model; 30 mg/kg NAM),% improvement of DAI vs DSS (murine DSS colitis model; 120 mg/kg NAM),% improvement of DAI vs DSS (murine DSS colitis model; 240 mg/kg NAM),"disease activity index (DAI), dose effect (murine DSS colitis model; NAM alone from 30 to 240 mg/kg)","macroscopic inflammation score, dose effect (murine DSS colitis model; NAM alone, 30 to 240 mg/kg)",stool consistency (diarrhea) (murine DSS colitis model; different NAM doses alone)
"Nc1ccc(O)c(C(=O)O)c1 [5-ASA, 5-aminosalicylic acid]",trend towards histological improvement,hardly improved,28%,significant effect,43%,53%,no difference,stronger decrease of the DAI,,,,,,,
"NC(=O)c1cccnc1 [NAM, nicotinamide]",,,,,,,,,trend towards histological improvement,39%,40%,40%,no dose response,slight dose-dependent effect,hardly improved
